Holding throughout (details): pH 7.4; 25 °C
For one assay, the target named is T1, Adenosine receptor A3 (Homo sapiens, UniProt P0DMS8).
T1 sequence (P0DMS8 whole entry): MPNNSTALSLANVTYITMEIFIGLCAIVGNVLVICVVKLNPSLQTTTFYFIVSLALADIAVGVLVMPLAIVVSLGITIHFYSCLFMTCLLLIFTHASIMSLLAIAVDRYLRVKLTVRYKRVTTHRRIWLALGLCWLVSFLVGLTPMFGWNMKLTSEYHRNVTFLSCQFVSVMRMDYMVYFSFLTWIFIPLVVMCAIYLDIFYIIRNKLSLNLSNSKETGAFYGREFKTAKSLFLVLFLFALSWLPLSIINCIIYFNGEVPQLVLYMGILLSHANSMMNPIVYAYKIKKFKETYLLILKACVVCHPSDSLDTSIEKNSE
The experiment in a line: A3 Adenosine Receptor Binding Assay. The procedure: Aliquots of cell membranes (90 ug) were incubated at 25 °C for 180 min in 500 uL of binding buffer (50 mM Tris-HCl, 5 mM MgCl2, 1 mM EDTA, 2 units/mL ADA, pH 7.4) in the presence of 30 nm [3H]NECA and six different concentrations of the tested compounds. Non-specific binding was determined in the presence of 100 uM R-PIA.

In another assay the target is T2, Adenosine receptor A1 (Homo sapiens, UniProt P30542).
T2 sequence (P30542 whole entry): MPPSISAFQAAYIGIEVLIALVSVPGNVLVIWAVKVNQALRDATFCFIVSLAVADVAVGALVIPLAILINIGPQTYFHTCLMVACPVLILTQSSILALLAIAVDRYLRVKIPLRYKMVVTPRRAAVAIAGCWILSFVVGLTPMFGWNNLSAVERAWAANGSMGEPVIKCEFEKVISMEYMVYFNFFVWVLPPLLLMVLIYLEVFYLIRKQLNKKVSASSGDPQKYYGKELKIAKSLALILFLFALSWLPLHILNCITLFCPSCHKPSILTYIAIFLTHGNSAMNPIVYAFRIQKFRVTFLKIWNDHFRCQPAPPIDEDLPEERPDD
The experiment in a line: A1 Adenosine Receptor Binding Assay. How it is done: Aliquots of cell membranes (30 ug proteins) were incubated at 25 °C for 180 min in 500 uL of binding buffer (50 mM Tris-HCl, 2 mM MgCl2, 2 units/mL ADA, pH 7.4) containing [3H]DPCPX (3 nM) and six different concentrations of the tested compounds. Non-specific binding was determined in the presence of 50 µM R-PIA. The dissociation constant (Kd) of [3H]DPCPX in human A1 AR CHO cell membranes was 3 nM.

A further assay has as its target Adenosine receptor A2a (Homo sapiens, UniProt P29274). The experiment in a line: A2A Adenosine Receptor Binding Assay. How it is done:
Aliquots of cell membranes (30 ug) were incubated at 25 °C for 90 min in 500 uL of binding buffer (50 mM Tris-HCl, 2 mm MgCl2, 2 units/mL ADA, pH 7.4) in the presence of 30 nM of [3H]NECA and six different concentrations of the tested compounds. Non-specific binding was determined in the presence of 100 uM R-PIA.

For orientation: Ki means the dissociation constant of the complex between target and ligand, obtained from inhibition or displacement. A low value points to a stronger hold on the target. What is called EC50 is the concentration at which the effect is half-maximal. Low values mean a more potent agent, high ones a less potent agent.

Adenosine receptor A2a, sequence (P29274 whole entry): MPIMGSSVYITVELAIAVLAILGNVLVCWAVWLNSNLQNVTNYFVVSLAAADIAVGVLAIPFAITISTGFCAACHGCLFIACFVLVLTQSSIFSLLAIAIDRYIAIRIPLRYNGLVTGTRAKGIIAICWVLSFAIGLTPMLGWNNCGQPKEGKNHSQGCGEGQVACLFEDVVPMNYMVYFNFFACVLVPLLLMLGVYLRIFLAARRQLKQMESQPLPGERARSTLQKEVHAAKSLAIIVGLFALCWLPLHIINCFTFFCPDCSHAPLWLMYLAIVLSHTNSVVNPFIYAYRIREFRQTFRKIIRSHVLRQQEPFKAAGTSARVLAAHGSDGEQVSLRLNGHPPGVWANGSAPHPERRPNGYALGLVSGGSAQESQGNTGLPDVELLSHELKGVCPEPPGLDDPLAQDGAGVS

For `CCCOc1cc(N)nc(SCc2ccccc2)n1` [4-amino-6-alkyloxy-2-benzylthiopyrimidines (4)], the Ki is above 10000 nM on Adenosine receptor A3, 1240 nM on Adenosine receptor A1 and above 10000 nM on Adenosine receptor A2a. In addition, on Adenosine receptor A1, a half-maximal response (EC50) required 490 nM.

With `CC(C)COc1cc(N)nc(SCc2ccccc2)n1` [4-amino-6-alkyloxy-2-benzylthiopyrimidines (5)], the inhibitory constant (Ki) at Adenosine receptor A3 was above 10000 nM; on Adenosine receptor A1 it was 1940 nM; at Adenosine receptor A2a it was above 10000 nM. Further, on Adenosine receptor A1, the concentration giving a half-maximal response (EC50) was 870 nM.

As to `Nc1cc(OCc2ccccc2)nc(SCc2ccccc2)n1` [4-amino-6-alkyloxy-2-benzylthiopyrimidines (6)], the Ki on Adenosine receptor A3 is above 10000 nM; on Adenosine receptor A1, 1200 nM; on Adenosine receptor A2a it was above 10000 nM.

The record behind these values is BindingDB's records for doi:10.1111/cbdd.12801 (2016).
